The values below come from patent US8785393B2, “Ophthalmic pharmaceutical compositions of DP2 receptor antagonists” (Panmira Pharmaceuticals, LLC, priority 2009, dated 2014).

Molecules are shown by their SMILES.

The subject of assay [1] is respiratory syncytial virus (RSV) eye infection. It is filed as in vivo. The conditions noted are these: topical 60 ng/eye once daily, 14 days.
Description: A mouse model of respiratory syncytial virus (RSV) eye infection is used to test the effects of ocular application of DP2 receptor antagonist compound on RSV-induced ocular immunopathology (Bitko V, et al., J. Virol. 2007; 81(2):783-90; Bitko V, et al., Nat. Med. 2005; 11(1):50-5). Each mouse eye is topically treated with 60 ng DP2 receptor antagonist compound or vehicle (sterile saline) in a volume of 2 μl. The DP2 receptor antagonist compound is instilled 40 min after virus inoculum and then once daily over the entire duration of the protocol (14 days).
Instillation of virus and inhibitor in the eye. Female BALB/c mice, 6 to 8 weeks old, are purchased from Charles River Laboratories. […]
Ocular pathology. Ocular disease is evaluated with a slit lamp biomicroscope (Bitko V, et al., J. Virol. 2007; 81(2):783-90)15; Girgis et al., Invest. […] Pathology is scored on a scale of 0 to 5 as follows: 0=clear eye; 1=slight redness in the corners; 2=moderate redness and injection; 3=conjunctival and corneal injection with ciliary flush; 4=extensive injection, generally associated with some mucus; 5=most extensive injection, associated with mucus. Eyes are examined in a coded fashion with the reader unaware of the treatment given. The presence of gummy residue or mucin in the eyes is recorded. […]
In assay [2] the test system is mouse model of ragweed-induced allergic conjunctivitis. Nature of the assay: Mouse ragweed allergic conjunctivitis. It is filed as in vivo. The conditions noted are these: topical 0.3% in PBS, three times daily, days 9-15, FIG. 5. Here is the method:
A mouse model of ragweed-induced allergic conjunctivitis was used to test the efficacy of topical administration of a DP2 receptor antagonist to the eye on the development of allergic conjunctivitis. Compound 2 was evaluated in a mouse model of ocular allergy. In this model, a systemic sensitization with an allergen (Short Ragweed, SRW) was followed by topical challenge with the same allergen. For sensitization a suspension of 50 μg of short ragweed allergen (SRW, Greer, Lenoir, NC, USA) 25 μl of Aluminum Hydroxide (13 mg/ml, Sigma Aldrich) was injected into both hind rear footpads (Day 0). On days 9 through 15, topical treatment with compound 2 (0.3% in PBS), positive control (Prednisolone Acetate 1% in hypromellose), or vehicle control (PBS) was administered three times daily. Mice were dosed topically to the central cornea using a calibrated micropipette, with a 5 μL drop of treatment in each eye. On days 13 through 15 mice were challenged with topical doses of 1000 μg SRW suspension in 5 μl PBS in each eye. SRW was prepared fresh daily, and used within 3 hours of mixing, and mixed well before administration to ensure homogeneity. Thirty minutes after the final challenge (Day 15) clinical signs (discharge, lid swelling hyperemia, chemosis, and squinting) were evaluated using the aid of a dissecting microscope. A cumulative score was also recorded including all parameters measured with the exception of squinting.

Assay [3] concerns guinea pig model of allergic conjunctivitis. Put plainly: Guinea pig model of allergic conjunctivitis (ovalbumin). It is filed as in vivo, Hartley Guinea pigs. Here is the method: A guinea pig model of allergic conjunctivitis is used to test the effect of topical administration of a DP2 receptor antagonist to the eye on the development of allergic conjunctivitis. Male Hartley Guinea pigs ages 4-8 weeks (300-500 grams) at the beginning of the experiment were sensitized by intraperitoneal injection of ovalbumin [0.5 ml of a 100 μg/ml solution in Imject Alum. An additional 0.5 ml of the ovalbumin (OVA) solution is injected subcutaneous in the proximity of the lymph nodes (Muise et al., 2002). Twenty one days after sensitization, guinea pigs received an ocular challenge. Briefly, animals were secured within a towel and placed in a lateral recumbent position. Ten microliters of saline or OVA (2.5% in Saline) was topically applied to each eye, followed by 2-3 manually forced blinks. This procedure is repeated again on day 23. Clinical scoring of redness (using a scale of 0-3), edema (using a scale of 0-3) and discharge (using a scale of 0-4) were evaluated 90 minutes after challenge on day 23. The itch/scratch response was observed and recorded (using a scale of 0-3) for the first 30 minutes after challenge on day 23. The DP2 receptor antagonist (compound 2; {2′-[(N-cyclopropanecarbonyl-N-ethyl-amino)-methyl]-6-methoxy-4′-trifluoromethyl-biphenyl-3-yl}-acetic acid) was administered on days 21-23 by topical application using the procedure described above in a concentration of 300 ng/eye in PBS vehicle. Oral administration was also evaluated by gavage of compound 2 (10 mg/kg) prepared in 0.5% Methylcellulose or water. The means±standard error of the mean were plotted and analyzed by one-way ANOVA using Graphpad Prizm.

Setting [4] is: scored 30 min after final challenge (Day 15).
Setting [5] is: topical 300 ng/eye in PBS, days 21-23, scored 90 minutes after challenge on day 23, FIG. 3.

On to `CCN(Cc1cc(C(F)(F)F)ccc1-c1cc(CC(=O)O)ccc1OC)C(=O)C1CC1` [compound 2, {2′-[(N-cyclopropanecarbonyl-N-ethyl-amino)-methyl]-6-methoxy-4′-trifluoromethyl-biphenyl-3-yl}-acetic acid], for which the RSV eye pathology entry in assay [1] (FIG. 4 (A)) is “reduced”. In addition, the “eye IL4 induction” value in assay [1] (FIG. 4 (B)) is reported as “reduced”. Moreover, the cumulative clinical score result in assay [2] (all parameters except squinting) was “significantly reduced”. Moreover, in assay [2] (setting [4]), the chemosis result is reported as “significantly reduced”, the discharge result is recorded as “significantly reduced” and the lid swelling result is listed as “significantly reduced”. Besides, the “any endpoint (redness, edema, discharge, itch/scratch, clinical score)” value in assay [3] (oral gavage 10 mg/kg) is on record as “failed to impact any endpoint”. Moreover, the cummulative clinical score entry in assay [3] (topical 300 ng/eye in PBS, days 21-23, after ocular antigen challenge, FIG. 3) was “significantly reduced”. Moreover, the itch/scratch response entry in assay [3] (topical 300 ng/eye in PBS, days 21-23, first 30 minutes after challenge on day 23, FIG. 3) is reported as “trend toward reduction”. Besides, in assay [3] (setting [5]), the Ocular edema result is “trend toward reduction”, the discharge entry was “significantly reduced” and the redness entry is “significantly reduced”.
